# Measurements: the NIST ThermoML archive (doi:10.1007/s10765-011-0996-9)
# ± gives the expanded uncertainty stated by the source.
# Experiment: cn = amount concentration of the nth substance listed, in mol/dm3
# Settings: 101 kPa, Liquid, Capillary tube (Ostwald / Ubbelohde) method, c1 = 2
SMILES,viscosity (298.15 K) [mPa·s],viscosity (303.15 K) [mPa·s],viscosity (308.15 K) [mPa·s],viscosity (313.15 K) [mPa·s],viscosity (318.15 K) [mPa·s],viscosity (323.15 K) [mPa·s]
O=[N+]([O-])[O-].[K+] [potassium nitrate] + O,0.8985 ± 0.0072,0.8134 ± 0.0066,0.7473 ± 0.0061,0.6857 ± 0.0057,0.6322 ± 0.0054,0.5838 ± 0.005
[Cl-].[K+] [potassium chloride] + O,0.9063 ± 0.0073,0.8279 ± 0.0067,0.7573 ± 0.0062,0.6954 ± 0.0058,0.64 ± 0.0054,0.5914 ± 0.0051
